According to US5001118A, “Method for preventing senescence and increasing bone mass” (priority 1986, dated 1991):

Tests used:
ICR type mice [1] = experiment: General inspection of blood, daily oral administration; format: in vivo, mouse (ICR type); parameters: key: .dwnarw.: Decrease below control; →: No difference from control; .uparw.: Increase above control
Method: (§1) Solutions obtained by dissolving the present substance, 24R,25-(OH)2 -D3 in a prescribed concentration in triglyceride of a fatty acid of 8 to 10 carbon atoms containing 1% of ethanol were administered respectively, orally, forcedly and daily to three male-groups and three female-groups of ICR type mice 5 weeks old at dosages of 10, 100, and 1,000 μg/kg.day. The results are compared below with respect to the following items with those obtained of the male- and female-groups using only the solvent without the present substance.

[2] = Growth curves (body weight), daily oral administration; format: in vivo, mouse (ICR type); conditions: male and female ICR mice, 10, 100, and 1,000 μg/kg.day orally
Method: as §1

[3] = test system: femurs of male Wister rats; experiment: Fracture test of femurs; format: in vivo, rat (Wister); conditions: rat femur, 40 μg/kg orally, 24 months; 20 kg-load cell; control 11.6 ± 2.2
Method: Male Wister rats 4 weeks old were preliminarily kept for 2 weeks. For the subsequent 24 months, the present substance, 24R,25-(OH)2 -D3, was orally administered to the pre-bred rats daily at a dosage of 40 μg/kg.day. Then, the aged rats were sacrificed and their femurs were collected and fractured with an instrument (produced by Iio Denki Co., Ltd. and marketed under trade name of "Rheodynacorder RDR-1500(D)") using a 20 kg-load cell, at a distance of 6.5 mm from the trochanter minor under the condition of a fulcrum interval of 13 mm to determine the power required for the fracture.
As regards the manner of administration, a modified feed was prepared by uniformly dispersing a prescribed amount of the present substance, 24R,25-(OH)2 -D3, in glycine and admixing the resultant dispersing mixture with a marketed feed (produced by Nippon Clea Co., Ltd. under product code of "CE-2") in such a manner as to give a final glycine concentration of 0.5% by weight and the modified feed was consumed by the rats. The administration dosage was calculated on the basis of the actual amount of the feed consumed by the rats.

ICR type mice [4] = experiment: Biochemical inspection of blood serum, daily oral administration; format: in vivo, mouse (ICR type); parameters: key: .dwnarw.: Decrease below control; →: No difference from control; .uparw.: Increase above control
From the text: The results are compared below with respect to the following items with those obtained of the male- and female-groups using only the solvent without the present substance.

ICR type mice [5] = experiment: Histopathological inspection of internal organs (haematoxylin eosine); format: in vivo, mouse (ICR type); conditions: male and female ICR mice, 10, 100, and 1,000 μg/kg.day orally
Method: as §1
The following internal organs were fixed with 10% formalin, tinted with haematoxylin eosine dye, and subjected to histopathological inspection.
Brain, heart, lung, liver, kidney, adrenal gland, spleen, pancreas, thyroid gland, pituitary gland, thymus, mesentery lymphoglandia, testis, ovary, uterus, stomach, small intestines (jejunum, ileum, and duodenum), large intestines (colon and caecum), orb, submaxillary gland, urinary bladder, dorsal skin, muscle, sternum, sternal medulla, femur, and femoral medulla.

## C=C1CC[C@H](O)C/C1=C/C=C1\CCC[C@]2(C)[C@@H]([C@H](C)CC[C@@H](O)C(C)(C)O)CC[C@@H]12 [24R,25-(OH)2 -D3]
ICR type mice [1]; female, group IV, 10 μm/kg
  Amount of hemoglobin: →
  Hematocrit value: →
  Number of red blood cells: →
  Number of white blood cells: →
ICR type mice [1]; female, group V, 100 μm/kg
  Amount of hemoglobin: →
  Hematocrit value: →
  Number of red blood cells: →
  Number of white blood cells: →
ICR type mice [1]; female, group VI, 1000 μg/kg
  Amount of hemoglobin: →
  Hematocrit value: →
  Number of red blood cells: →
ICR type mice [1]; female, group VI, 1000 μm/kg
  Number of white blood cells: →
ICR type mice [1]; male, group I, 10 μm/kg
  Amount of hemoglobin: →
  Hematocrit value: →
  Number of red blood cells: →
  Number of white blood cells: →
ICR type mice [1]; male, group II, 100 μm/kg
  Amount of hemoglobin: →
  Hematocrit value: →
  Number of red blood cells: →
  Number of white blood cells: →
ICR type mice [1]; male, group III, 1000 μg/kg
  Amount of hemoglobin: →
  Hematocrit value: →
  Number of red blood cells: →
ICR type mice [1]; male, group III, 1000 μm/kg
  Number of white blood cells: →
[2]
  change of body weight (growth curves): absence of a discernible difference
[3]
  Power for fracture: Out of scale, so large
ICR type mice [4]; female, 10 μg/kg
  A/G: →
  ALP: →
  Alb: →
  BUN: →
  Ca: →
  GOT: →
  GPT: →
  Glu: →
  I-P: →
  LDH: →
  T-Bil: →
  T-CHO: →
  T-P: →
ICR type mice [4]; female, 100 μg/kg
  A/G: →
  ALP: →
  Alb: →
  BUN: →
  Ca: →
  GOT: →
  GPT: →
  Glu: →
  I-P: →
  LDH: →
  T-Bil: →
  T-CHO: →
  T-P: →
ICR type mice [4]; female, 1000 μg/kg
  A/G: →
  ALP: →
  Alb: →
  BUN: →
  Ca: →
  GOT: →
  GPT: →
  Glu: →
  I-P: →
  LDH: →
  T-Bil: →
  T-CHO: →
  T-P: →
ICR type mice [4]; male, 10 μg/kg
  A/G: →
  ALP: →
  Alb: →
  BUN: →
  Ca: →
  GOT: →
  GPT: →
  Glu: →
  I-P: →
  LDH: →
  T-Bil: →
  T-CHO: →
  T-P: →
ICR type mice [4]; male, 100 μg/kg
  A/G: →
  ALP: →
  Alb: →
  BUN: →
  Ca: →
  GOT: →
  GPT: →
  Glu: →
  I-P: →
  LDH: →
  T-Bil: →
  T-CHO: →
  T-P: →
ICR type mice [4]; male, 1000 μg/kg
  A/G: →
  ALP: →
  Alb: →
  BUN: .dwnarw.
  Ca: →
  GOT: →
  GPT: →
  Glu: .dwnarw.
  I-P: →
  LDH: .dwnarw.
  T-Bil: .dwnarw.
  T-CHO: →
  T-P: →
ICR type mice [5]
  histopathological inspection of internal organs: no discernible abnormality
